According to the supplement of paper PMC13207355:
± gives the standard deviation of the averaged measurements.

Tests used:
Settings in all cases: exposure time: 72 h
[1] = test system: E13 (patient-derived glioblastoma stem cells of classical subtype); test: phenotypic distance (Euclidean, principal components) from DMSO controls (arbitrary units); higher = stronger morphological change
[2] = test system: E21 (patient-derived glioblastoma stem cells of mesenchymal subtype); test: as above
[3] = test system: E28 (patient-derived glioblastoma stem cells of classical subtype); test: as above
[4] = test system: E31 (patient-derived glioblastoma stem cells of proneural subtype); test: as above
[5] = test system: E34 (patient-derived glioblastoma stem cells of proneural subtype); test: as above
[6] = test system: E57 (patient-derived glioblastoma stem cells of mesenchymal subtype); test: as above
[7] = test system: FT3469 (normal neural stem cell line); test: as above
[8] = test system: E13; test: surviving fraction (nuclei count normalised to DMSO); higher = more cells surviving (less toxic)
[9] = test system: E21; test: as above
[10] = test system: E28; test: as above
[11] = test system: E34; test: as above
[12] = test system: E57; test: as above
[13] = test system: FT3469; test: as above
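Throughout, for phenotypic distance (Euclidean, principal components) from DMSO controls: cell Painting imaging in 384-well plates, CellProfiler features reduced to at least 20 principal components, Euclidean distance versus same-plate DMSO vehicle wells (0.1% v/v), median over six images per well.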
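Throughout, for surviving fraction (nuclei count normalised to DMSO): nuclei counted by high-content imaging of Hoechst-stained cells in laminin-coated 384-well plates, relative to 0.1% DMSO vehicle wells, with staurosporine as cell-death control.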

CC(C)(C)CC(C)(C)c1ccc(OCCOCC[N+](C)(C)Cc2ccccc2)cc1 [Benzethonium chloride]
phenotypic distance
Settings	[1]	[2]	[3]	[4]	[5]	[6]	[7]
4.11523 nM	0.537	0.773	0.718	0.922	0.73	0.566	0.694
12.34567901 nM	0.594	1.03	0.685	0.452	0.622	0.67	1.16
37.037 nM	0.837	0.654	0.4	0.793	0.82	0.808	0.855
111.1111111 nM	1.05	1	0.716	0.714	0.847	0.566	0.746
333.333 nM	0.65	0.939	0.667	1.42	0.91	0.524	0.802
1000 nM	1.22	1.3	0.382	1.81	1.21	2.04	2.79
3000 nM	4.92	3.86	4.89	12.9	2.98	4.76	2.88

Cc1cc(Nc2cc(CN3CCOCC3)c3nc(C)c(Cc4ccc(Cl)cc4F)n3n2)n[nH]1 [Gandotinib]
Settings	phenotypic distance	surviving fraction
[1], 4.1 nM	0.676 ± 0.052	–
[1], 12.3 nM	0.87 ± 0.42	–
[1], 37 nM	0.987 ± 0.23	–
[1], 111.1 nM	1.47 ± 0.41	–
[1], 333.3 nM	1.57 ± 0.083	–
[1], 1000 nM	1.9 ± 0.19	–
[1], 3000 nM	2.7 ± 0.044	–
[2], 4.1 nM	1.3 ± 0.8	–
[2], 12.3 nM	0.9953 ± 0.0043	–
[2], 37 nM	1.34 ± 0.25	–
[2], 111.1 nM	1.92 ± 0.29	–
[2], 333.3 nM	2.89 ± 0.21	–
[2], 1000 nM	4.83 ± 0.15	–
[2], 3000 nM	9.25 ± 0.9	–
[3], 4.1 nM	0.402 ± 0.081	–
[3], 12.3 nM	0.536 ± 0.22	–
[3], 37 nM	0.979 ± 0.057	–
[3], 111.1 nM	1.01 ± 0.12	–
[3], 333.3 nM	1.15 ± 0.086	–
[3], 1000 nM	1.63 ± 0.33	–
[3], 3000 nM	3.72 ± 0.25	–
[5], 4.1 nM	1.52 ± 0.43	–
[5], 12.3 nM	2.31 ± 0.2	–
[5], 37 nM	3.63 ± 0.68	–
[5], 111.1 nM	5.44 ± 0.36	–
[5], 333.3 nM	7.1 ± 0.9	–
[5], 1000 nM	7.41 ± 0.58	–
[5], 3000 nM	7.42 ± 0.59	–
[6], 4.1 nM	0.653 ± 0.12	–
[6], 12.3 nM	0.688 ± 0.39	–
[6], 37 nM	1.33 ± 0.22	–
[6], 111.1 nM	1.76 ± 0.15	–
[6], 333.3 nM	2.18 ± 0.16	–
[6], 1000 nM	2.93 ± 0.22	–
[6], 3000 nM	5.26 ± 0.74	–
[7], 4.1 nM	0.44 ± 0.23	–
[7], 12.3 nM	0.627 ± 0.28	–
[7], 37 nM	0.479 ± 0.12	–
[7], 111.1 nM	1.67 ± 1.5	–
[7], 333.3 nM	0.785 ± 0.077	–
[7], 1000 nM	0.863 ± 0.31	–
[7], 3000 nM	2.05 ± 0.44	–
[8], 4.1 nM	–	1.02 ± 0.093
[8], 12.3 nM	–	0.923 ± 0.012
[8], 37 nM	–	0.933 ± 0.02
[8], 111.1 nM	–	0.946 ± 0.038
[8], 333.3 nM	–	0.818 ± 0.03
[8], 1000 nM	–	0.791 ± 0.045
[8], 3000 nM	–	0.626 ± 0.02
[9], 4.1 nM	–	1.07 ± 0.078
[9], 12.3 nM	–	1.02 ± 0.018
[9], 37 nM	–	1.03 ± 0.049
[9], 111.1 nM	–	0.918 ± 0.025
[9], 333.3 nM	–	0.724 ± 0.0084
[9], 1000 nM	–	0.505 ± 0.012
[9], 3000 nM	–	0.164 ± 0.071
[10], 4.1 nM	–	1.03 ± 0.024
[10], 12.3 nM	–	0.979 ± 0.075
[10], 37 nM	–	1.06 ± 0.019
[10], 111.1 nM	–	1.02 ± 0.091
[10], 333.3 nM	–	0.865 ± 0.13
[10], 1000 nM	–	0.673 ± 0.059
[10], 3000 nM	–	0.335 ± 0.004
[11], 4.1 nM	–	0.94 ± 0.011
[11], 12.3 nM	–	0.77 ± 0.079
[11], 37 nM	–	0.6589 ± 0.0013
[11], 111.1 nM	–	0.511 ± 0.065
[11], 333.3 nM	–	0.44 ± 0.049
[11], 1000 nM	–	0.4 ± 0.016
[11], 3000 nM	–	0.316 ± 0.016
[12], 4.1 nM	–	1.061 ± 0.009
[12], 12.3 nM	–	0.946 ± 0.027
[12], 37 nM	–	0.903 ± 0.097
[12], 111.1 nM	–	0.781 ± 0.028
[12], 333.3 nM	–	0.534 ± 0.032
[12], 1000 nM	–	0.42 ± 0.029
[12], 3000 nM	–	0.193 ± 0.047
[13], 4.1 nM	–	0.931 ± 0.1
[13], 12.3 nM	–	0.889 ± 0.023
[13], 37 nM	–	0.969 ± 0.014
[13], 111.1 nM	–	0.97 ± 0.044
[13], 333.3 nM	–	0.9328 ± 0.0038
[13], 1000 nM	–	0.806 ± 0.068
[13], 3000 nM	–	0.584 ± 0.046

CC(C)C[C@H](NC(=O)[C@H](Cc1ccccc1)C[C@@H](O)[C@H](Cc1ccccc1)NC(=O)OC(C)(C)C)C(=O)N[C@@H](Cc1ccccc1)C(N)=O [L-685,458]
Settings	phenotypic distance	surviving fraction
[1], 4.1 nM	0.562	–
[1], 4.11523 nM	0.913	–
[1], 12.3 nM	0.877	–
[1], 12.34567901 nM	0.727	–
[1], 37 nM	0.594	–
[1], 37.037 nM	0.991	–
[1], 111.1 nM	0.891	–
[1], 111.1111111 nM	2.26	–
[1], 333.3 nM	0.794	–
[1], 333.333 nM	0.929	–
[1], 1000 nM	1.66 ± 1.3	–
[1], 3000 nM	0.881 ± 0.11	–
[2], 4.1 nM	0.782	–
[2], 4.11523 nM	0.593	–
[2], 12.3 nM	0.577	–
[2], 12.34567901 nM	0.764	–
[2], 37 nM	0.535	–
[2], 37.037 nM	0.752	–
[2], 111.1 nM	0.68	–
[2], 111.1111111 nM	0.628	–
[2], 333.3 nM	0.73	–
[2], 333.333 nM	0.786	–
[2], 1000 nM	0.724 ± 0.13	–
[2], 3000 nM	0.836 ± 0.1	–
[3], 4.1 nM	0.474	–
[3], 4.11523 nM	0.565	–
[3], 12.3 nM	0.894	–
[3], 12.34567901 nM	0.663	–
[3], 37 nM	0.847	–
[3], 37.037 nM	0.502	–
[3], 111.1 nM	0.482	–
[3], 111.1111111 nM	0.958	–
[3], 333.3 nM	0.937	–
[3], 333.333 nM	0.39	–
[3], 1000 nM	0.79 ± 0.3	–
[3], 3000 nM	0.756 ± 0.4	–
[5], 4.1 nM	1.11	–
[5], 4.11523 nM	0.526	–
[5], 12.3 nM	0.954	–
[5], 12.34567901 nM	0.619	–
[5], 37 nM	0.627	–
[5], 37.037 nM	0.56	–
[5], 111.1 nM	0.75	–
[5], 111.1111111 nM	0.762	–
[5], 333.3 nM	1.1	–
[5], 333.333 nM	0.452	–
[5], 1000 nM	0.948 ± 0.099	–
[5], 3000 nM	1.12 ± 0.25	–
[6], 4.1 nM	0.808	–
[6], 4.11523 nM	1.06	–
[6], 12.3 nM	1.19	–
[6], 12.34567901 nM	0.938	–
[6], 37 nM	1.05	–
[6], 37.037 nM	0.959	–
[6], 111.1 nM	1.22	–
[6], 111.1111111 nM	0.783	–
[6], 333.3 nM	0.893	–
[6], 333.333 nM	1.03	–
[6], 1000 nM	1.1 ± 0.095	–
[6], 3000 nM	1.07 ± 0.29	–
[7], 4.1 nM	0.822	–
[7], 4.11523 nM	0.544	–
[7], 12.3 nM	0.633	–
[7], 12.34567901 nM	0.898	–
[7], 37 nM	0.582	–
[7], 37.037 nM	0.598	–
[7], 111.1 nM	1.41	–
[7], 111.1111111 nM	0.791	–
[7], 333.3 nM	0.871	–
[7], 333.333 nM	0.681	–
[7], 1000 nM	0.906 ± 0.059	–
[7], 3000 nM	1.06 ± 0.32	–
[8], 4.1 nM	–	1.06
[8], 4.11523 nM	–	1.16
[8], 12.3 nM	–	1.04
[8], 12.34567901 nM	–	1.1
[8], 37 nM	–	1.01
[8], 37.037 nM	–	0.999
[8], 111.1 nM	–	1.18
[8], 111.1111111 nM	–	1.01
[8], 333.3 nM	–	1.02
[8], 333.333 nM	–	1.09
[8], 1000 nM	–	1.14 ± 0.11
[8], 3000 nM	–	1.01 ± 0.018
[9], 4.1 nM	–	0.96
[9], 4.11523 nM	–	0.891
[9], 12.3 nM	–	0.969
[9], 12.34567901 nM	–	0.958
[9], 37 nM	–	0.95
[9], 37.037 nM	–	0.941
[9], 111.1 nM	–	1.03
[9], 111.1111111 nM	–	1.03
[9], 333.3 nM	–	0.861
[9], 333.333 nM	–	1.04
[9], 1000 nM	–	1.05 ± 0.053
[9], 3000 nM	–	0.948 ± 0.022
[10], 4.1 nM	–	0.997
[10], 4.11523 nM	–	1.1
[10], 12.3 nM	–	1.15
[10], 12.34567901 nM	–	0.885
[10], 37 nM	–	0.825
[10], 37.037 nM	–	1.02
[10], 111.1 nM	–	1.11
[10], 111.1111111 nM	–	0.813
[10], 333.3 nM	–	0.795
[10], 333.333 nM	–	1.02
[10], 1000 nM	–	0.858 ± 0.077
[10], 3000 nM	–	0.834 ± 0.13
[11], 4.1 nM	–	0.787
[11], 4.11523 nM	–	0.957
[11], 12.3 nM	–	1.02
[11], 12.34567901 nM	–	0.895
[11], 37 nM	–	0.964
[11], 37.037 nM	–	1.09
[11], 111.1 nM	–	0.946
[11], 111.1111111 nM	–	0.976
[11], 333.3 nM	–	0.746
[11], 333.333 nM	–	1.15
[11], 1000 nM	–	1 ± 0.059
[11], 3000 nM	–	0.924 ± 0.091
[12], 4.1 nM	–	1.04
[12], 4.11523 nM	–	0.963
[12], 12.3 nM	–	0.967
[12], 12.34567901 nM	–	0.988
[12], 37 nM	–	0.958
[12], 37.037 nM	–	0.998
[12], 111.1 nM	–	1.01
[12], 111.1111111 nM	–	1.03
[12], 333.3 nM	–	1.08
[12], 333.333 nM	–	0.989
[12], 1000 nM	–	1.04 ± 0.037
[12], 3000 nM	–	1 ± 0.024
[13], 4.1 nM	–	0.944
[13], 4.11523 nM	–	0.979
[13], 12.3 nM	–	1.02
[13], 12.34567901 nM	–	0.858
[13], 37 nM	–	0.9
[13], 37.037 nM	–	1.03
[13], 111.1 nM	–	0.901
[13], 111.1111111 nM	–	0.984
[13], 333.3 nM	–	0.882
[13], 333.333 nM	–	0.884
[13], 1000 nM	–	0.867 ± 0.076
[13], 3000 nM	–	0.838 ± 0.065
